Experimental data as given in patent US12139768B2, “Polymerase chain reaction primers and probes for Mycobacterium tuberculosis” (Rutgers, The State University of New Jersey, priority 2014, dated 2024).
Read-outs that look alike come from different tables or passages of the source.

Legend:
[1] = system: M.tb isolates; format: cell-based, Mycobacterium tuberculosis
[2] = system: M.tb isolates; format: cell-based, Mycobacterium tuberculosis; remark: listed apart in the source
[3] = system: rrs gene; format: binding; details: clinical DNA
[4] = system: eis promoter region; format: binding; details: clinical DNA
[5] = eis promoter G(−10)A + NM (mixed)
[6] = rrs-A1401G + eis C(−14)T double mutant

Compound: NCC[C@H](O)C(=O)N[C@@H]1C[C@H](N)[C@@H](O[C@H]2O[C@H](CN)[C@@H](O)[C@H](O)[C@H]2O)[C@H](O)[C@H]1O[C@H]1O[C@H](CO)[C@@H](O)[C@H](N)[C@H]1O [AMK, Amikacin]
- Susceptibility (LJ) [1]: S and R
- Total number of isolates Susceptible (LJ) [1]: 513

Compound: NC[C@H]1O[C@H](O[C@H]2[C@H](O)[C@@H](O[C@H]3O[C@H](CO)[C@@H](O)[C@H](N)[C@H]3O)[C@H](N)C[C@@H]2N)[C@H](O)[C@@H](O)[C@@H]1O [KAN, Kanamycin]
- Susceptibility (LJ) [1]: S and R
- Total number of isolates Susceptible (LJ) [1]: 497
- Susceptibility (MGIT) [2]: R and S
- Total number of isolates Susceptible (MGIT) [2]: 447

Compound: cacgACCGCCCGTCACGTCATGAAAGTCGGTcgtg (DNA CACGACCGCCCGTCACGTCATGAAAGTCGGTCGTG; molecular beacon, labels not given here, further chemistry not given here) [rrs-1400, SMB probe targeted against the rrs gene]
- Mean Tm ([3]; No mutation (NM), wild type): 70.1 °C
- Mean Tm ([3]; eis promoter C(−8) deletion): 70.10 °C
- dTm (Tm difference of mutant from wild type) ([3]; eis promoter C(−8) deletion): 0.00 °C
- Mean Tm ([3]; eis promoter C(−12)T): 70.15 °C
- dTm (Tm difference of mutant from wild type) ([3]; eis promoter C(−12)T): −0.05 °C
- Mean Tm ([3]; eis promoter C(−14)T): 70.10 °C
- dTm (Tm difference of mutant from wild type) ([3]; eis promoter C(−14)T): 0.00 °C
- Mean Tm ([3]; eis promoter G(−10)A): 70.20 °C
- dTm (Tm difference of mutant from wild type) ([3]; eis promoter G(−10)A): −0.10 °C
- Mean Tm [3, 5]: 70.20 °C
- dTm (Tm difference of mutant from wild type) [3, 5]: −0.10 °C
- Mean Tm ([3]; eis promoter G(−37)T): 70.20 °C
- dTm (Tm difference of mutant from wild type) ([3]; eis promoter G(−37)T): −0.10 °C
- Mean Tm ([3]; rrs gene A1401G): 66.20 °C
- dTm (Tm difference of mutant from wild type) ([3]; rrs gene A1401G): 3.9 °C
- dTm (Tm difference of mutant from wild type) ([3]; rrs gene A1401G + NM (mixed)): 3.90 °C
- Mean Tm ([3]; rrs gene A1401G + NM (mixed, double Tm peak)): 66.20-70.10 °C
- dTm (Tm difference of mutant from wild type) ([3]; rrs gene C1402T + NM (mixed)): 5.6 °C
- Mean Tm ([3]; rrs gene C1402T + NM (mixed, double Tm peak)): 64.50-70.10 °C
- Mean Tm [3, 6]: 66.30 °C
- dTm (Tm difference of mutant from wild type) [3, 6]: 3.80 °C

Compound: ctcgcGGCATATGCCACAGTCGGATTCTcTGACgcgag (DNA CTCGCGGCATATGCCACAGTCGGATTCTCTGACGCGAG; molecular beacon, labels not given here, further chemistry not given here) [eis-2, SMB probe targeted against the eis promoter region]
- Mean Tm ([4]; No mutation (NM), wild type): 69 °C
- Mean Tm ([4]; No mutation (NM), wild type, listed as eis2): 69.00 °C
- Mean Tm ([4]; eis promoter C(−8) deletion): 63.10 °C
- dTm (Tm difference of mutant from wild type) ([4]; eis promoter C(−8) deletion): 5.90 °C
- Mean Tm ([4]; eis promoter C(−12)T): 62.92 °C
- dTm (Tm difference of mutant from wild type) ([4]; eis promoter C(−12)T): 6.08 °C
- Mean Tm ([4]; eis promoter C(−14)T): 62.60 °C
- dTm (Tm difference of mutant from wild type) ([4]; eis promoter C(−14)T): 6.40 °C
- Mean Tm ([4]; eis promoter G(−10)A): 64.70 °C
- dTm (Tm difference of mutant from wild type) ([4]; eis promoter G(−10)A): 4.30 °C
- dTm (Tm difference of mutant from wild type) [4, 5]: 4.20 °C
- Mean Tm ([4]; eis promoter G(−10)A + NM (mixed, double Tm peak for eis2)): 64.80-69.10 °C
- Mean Tm ([4]; eis promoter G(−37)T): 69.10 °C
- dTm (Tm difference of mutant from wild type) ([4]; eis promoter G(−37)T): −0.10 °C
- Mean Tm ([4]; rrs gene A1401G): 69.10 °C
- dTm (Tm difference of mutant from wild type) ([4]; rrs gene A1401G): −0.10 °C
- Mean Tm ([4]; rrs gene A1401G + NM (mixed)): 69.10 °C
- dTm (Tm difference of mutant from wild type) ([4]; rrs gene A1401G + NM (mixed)): −0.10 °C
- Mean Tm ([4]; rrs gene C1402T + NM (mixed)): 69.20 °C
- dTm (Tm difference of mutant from wild type) ([4]; rrs gene C1402T + NM (mixed)): −0.20 °C
- Mean Tm [4, 6]: 62.50 °C
- dTm (Tm difference of mutant from wild type) [4, 6]: 6.50 °C
